Converted amounts (≈) assume the structure as drawn.
System: enterovirus type 70 (EV70)
Experiment: Inhibition of EV70 cytopathogenic effect (CPE) in LLC-MK2 cells
Type: cell-based
Conditions: CI = CD50 (LLC-MK2)/IC50 (virus CPE)

Structure (SMILES)	CI EV70 (C)/(A)
CCc1cc2c(cc1Cl)nc(CNc1ccncc1)n2-c1ccccc1 [LXXV, 1-phenyl-2-(4-pyridylaminomethyl)-5-chloro-6-ethylbenzimidazole]	> 2
Cc1ccc2nc(CNc3ccncc3)n(-c3ccccc3)c2c1 [XLIII]	> 6
CCc1ccc2c(c1)nc(CNc1ccncc1)n2-c1ccccc1 [XLIV]	> 31
Cc1cc(Cl)cc2[nH]c(CNc3ccncc3)nc12 [XXV]	13
COc1cc2nc(CNc3ccncc3)[nH]c2cc1Cl [XXXIII]	> 2

Same assay, conditions: Enterovirus D; * Virus CPE inhibition assay, LLC-MK2 cells, 33° C.

Structure (SMILES)	IC50 [µg/mL]
CCc1ccccc1-n1c(CNc2ccncc2)nc2ccccc21 [LXV]	> 100
c1ccc2c(c1)nc(CNc1ccncc1)n2-c1nccs1 [LXXIII]	> 100
CCc1cc2c(cc1Cl)nc(CNc1ccncc1)n2-c1ccccc1 [LXXV, 1-phenyl-2-(4-pyridylaminomethyl)-5-chloro-6-ethylbenzimidazole]	> 56.2
Cc1ccc2nc(CNc3ccncc3)n(-c3ccccc3)c2c1 [XLIII]	17.8 (≈ 56.6 µM)
CCc1ccc2c(c1)nc(CNc1ccncc1)n2-c1ccccc1 [XLIV]	3.2 (≈ 9.74 µM)
Fc1ccc2nc(CNc3ccncc3)n(-c3ccccc3)c2c1 [XLVIII]	> 100
Clc1cc(Cl)c2nc(CNc3ccncc3)[nH]c2c1 [XXVII]	> 100
Cc1cc(Cl)c2nc(CNc3ccncc3)[nH]c2c1 [XXVI]	> 100
Cc1cc(Cl)cc2[nH]c(CNc3ccncc3)nc12 [XXV]	56.2 (≈ 206 µM)
COc1cc2nc(CNc3ccncc3)[nH]c2cc1Cl [XXXIII]	56.2 (≈ 195 µM)

System: coxsackievirus type B4 (CB4)
Experiment: Inhibition of CB4 cytopathogenic effect (CPE) in LLC-MK2 cells
Type: cell-based
Conditions: CI = CD50 (LLC-MK2)/IC50 (virus CPE)

Structure (SMILES)	CI CB4 (C)/(A)
Cc1ccc2nc(CNc3ccncc3)n(-c3ccccc3)c2c1 [XLIII]	> 31
CCc1ccc2c(c1)nc(CNc1ccncc1)n2-c1ccccc1 [XLIV]	> 15

Same assay, conditions: Coxsackievirus; * Virus CPE inhibition assay, LLC-MK2 cells, 37° C.

Structure (SMILES)	IC50 [µg/mL]
CCc1ccccc1-n1c(CNc2ccncc2)nc2ccccc21 [LXV]	> 100
c1ccc2c(c1)nc(CNc1ccncc1)n2-c1nccs1 [LXXIII]	> 100
CCc1cc2c(cc1Cl)nc(CNc1ccncc1)n2-c1ccccc1 [LXXV, 1-phenyl-2-(4-pyridylaminomethyl)-5-chloro-6-ethylbenzimidazole]	> 100
Cc1ccc2nc(CNc3ccncc3)n(-c3ccccc3)c2c1 [XLIII]	3.2 (≈ 10.2 µM)
CCc1ccc2c(c1)nc(CNc1ccncc1)n2-c1ccccc1 [XLIV]	6.8 (≈ 20.7 µM)
Fc1ccc2nc(CNc3ccncc3)n(-c3ccccc3)c2c1 [XLVIII]	> 100

System: rhinovirus type 14 (HRV14)
Experiment: Inhibition of HRV14 plaque formation in HeLa cells
Type: cell-based
Conditions: CI = CD50 (HeLa)/IC50 (plaque)

Structure (SMILES)	CI HRV14 (D)/(B)
Cc1cc2nc(CNc3ccncc3)[nH]c2cc1Br [XXVIII]	15

Same assay, conditions: Enterovirus, HRV14; plaque reduction, HeLa cells, 33° C.

Structure (SMILES)	IC50 [µg/mL]
CCCn1c(CNc2ccncc2)nc2ccccc21 [XII]	> 50
Cc1cc2nc(CNc3ccncc3)[nH]c2cc1Br [XXVIII]	3.6 (≈ 11.3 µM)
Cn1c(CNc2ccncc2)nc2cc(Cl)ccc21 [XXXVIII]	> 50
CCc1ccc2c(c1)nc(CNc1ccncc1)n2C [XXXVII]	20 (≈ 75.1 µM)

System: not listed separately
Experiment: in vitro
Conditions: human, hela cells

Structure (SMILES)	CC50 [µg/mL]
CCc1ccccc1-n1c(CNc2ccncc2)nc2ccccc21 [LXV]	> 100
c1ccc2c(c1)nc(CNc1ccncc1)n2-c1nccs1 [LXXIII]	> 100
CCc1cc2c(cc1Cl)nc(CNc1ccncc1)n2-c1ccccc1 [LXXV, 1-phenyl-2-(4-pyridylaminomethyl)-5-chloro-6-ethylbenzimidazole]	17.8 (≈ 49.1 µM)
Cc1ccc2nc(CNc3ccncc3)n(-c3ccccc3)c2c1 [XLIII]	> 100
CCc1ccc2c(c1)nc(CNc1ccncc1)n2-c1ccccc1 [XLIV]	> 100
CCc1ccc2nc(CNc3ccncc3)n(-c3ccccc3)c2c1 [XLV]	56.2 (≈ 171 µM)
Clc1cc(Cl)c2nc(CNc3ccncc3)[nH]c2c1 [XXVII]	17.8 (≈ 60.7 µM)
Cc1cc(Cl)c2nc(CNc3ccncc3)[nH]c2c1 [XXVI]	56.2 (≈ 206 µM)
Cc1cc(Cl)cc2[nH]c(CNc3ccncc3)nc12 [XXV]	17.8 (≈ 65.3 µM)

System: not listed separately
Experiment: in vitro
Conditions: monkey, llc-mk2 cells

Structure (SMILES)	CC50 [µg/mL]
CCc1ccccc1-n1c(CNc2ccncc2)nc2ccccc21 [LXV]	> 100
c1ccc2c(c1)nc(CNc1ccncc1)n2-c1nccs1 [LXXIII]	> 100
CCc1cc2c(cc1Cl)nc(CNc1ccncc1)n2-c1ccccc1 [LXXV, 1-phenyl-2-(4-pyridylaminomethyl)-5-chloro-6-ethylbenzimidazole]	> 100
CCCn1c(CNc2ccncc2)nc2ccccc21 [XII]	> 2000
Cc1ccc2nc(CNc3ccncc3)n(-c3ccccc3)c2c1 [XLIII]	> 100
CCc1ccc2c(c1)nc(CNc1ccncc1)n2-c1ccccc1 [XLIV]	> 100
CCc1ccc2nc(CNc3ccncc3)n(-c3ccccc3)c2c1 [XLV]	56.2 (≈ 171 µM)
Clc1cc(Cl)c2nc(CNc3ccncc3)[nH]c2c1 [XXVII]	> 100
Cc1cc(Cl)c2nc(CNc3ccncc3)[nH]c2c1 [XXVI]	1410 (≈ 5180 µM)
Cc1cc(Cl)cc2[nH]c(CNc3ccncc3)nc12 [XXV]	707 (≈ 2590 µM)

System: coxsackievirus type B4 (CB4)
Experiment: Inhibition of CB4 plaque formation in LLC-MK2 cells
Type: cell-based
Conditions: CI = CD50 (LLC-MK2)/IC50 (plaque)

Structure (SMILES)	CI CB4 (C)/(A)
CCCn1c(CNc2ccncc2)nc2ccccc21 [XII]	> 4,255
CCc1ccc2nc(CNc3ccncc3)n(-c3ccccc3)c2c1 [XLV]	11
Cc1cc2nc(CNc3ccncc3)[nH]c2cc1Br [XXVIII]	13
Cn1c(CNc2ccncc2)nc2cc(Cl)ccc21 [XXXVIII]	> 2

Same assay, conditions: Coxsackievirus; plaque reduction, LLC-MK2 cells, 37° C.

Structure (SMILES)	IC50 [µg/mL]
CCCn1c(CNc2ccncc2)nc2ccccc21 [XII]	0.47 (≈ 1.76 µM)
CCc1ccc2nc(CNc3ccncc3)n(-c3ccccc3)c2c1 [XLV]	5 (≈ 15.2 µM)
Cc1cc2nc(CNc3ccncc3)[nH]c2cc1Br [XXVIII]	13.5 (≈ 42.6 µM)
Cn1c(CNc2ccncc2)nc2cc(Cl)ccc21 [XXXVIII]	56 (≈ 205 µM)
CCc1ccc2c(c1)nc(CNc1ccncc1)n2C [XXXVII]	> 50

System: poliovirus type 2 (Polio2)
Experiment: microbe, parasite or virus in culture
Type: cell-based
Conditions: CI = CD50 (LLC-MK2)/IC50 (plaque)

Structure (SMILES)	CI Polio2 (C)/(A)
CCCn1c(CNc2ccncc2)nc2ccccc21 [XII]	> 556
Cc1cc2nc(CNc3ccncc3)[nH]c2cc1Br [XXVIII]	5

Same assay, conditions: Enterovirus C, LLC-MK2, read-out: IC50 Polio2

Structure (SMILES)	IC50 [µg/mL]
CCCn1c(CNc2ccncc2)nc2ccccc21 [XII]	3.6 (≈ 13.5 µM)
CCc1ccc2nc(CNc3ccncc3)n(-c3ccccc3)c2c1 [XLV]	> 100
Cc1cc2nc(CNc3ccncc3)[nH]c2cc1Br [XXVIII]	34 (≈ 107 µM)
Cn1c(CNc2ccncc2)nc2cc(Cl)ccc21 [XXXVIII]	> 100
CCc1ccc2c(c1)nc(CNc1ccncc1)n2C [XXXVII]	> 100

System: not listed separately
Experiment: Cytotoxicity, morphology of HeLa cells
Conditions: human

Structure (SMILES)	CC50 [µg/mL]
Cc1cc2nc(CNc3ccncc3)[nH]c2cc1Br [XXVIII]	56.2 (≈ 177 µM)

System: enterovirus type 70 (EV70)
Experiment: Inhibition of EV70 plaque formation in LLC-MK2 cells
Type: cell-based
Conditions: CI = CD50 (LLC-MK2)/IC50 (plaque)

Structure (SMILES)	CI EV70 (C)/(A)
CCCn1c(CNc2ccncc2)nc2ccccc21 [XII]	> 465
CCc1ccc2nc(CNc3ccncc3)n(-c3ccccc3)c2c1 [XLV]	35
Cc1cc2nc(CNc3ccncc3)[nH]c2cc1Br [XXVIII]	88
CCc1ccc2c(c1)nc(CNc1ccncc1)n2C [XXXVII]	> 5

Same assay, conditions: Enterovirus D; plaque reduction, LLC-MK2 cells, 33° C.

Structure (SMILES)	IC50 [µg/mL]
CCCn1c(CNc2ccncc2)nc2ccccc21 [XII]	4.3 (≈ 16.1 µM)
CCc1ccc2nc(CNc3ccncc3)n(-c3ccccc3)c2c1 [XLV]	1.6 (≈ 4.87 µM)
Cc1cc2nc(CNc3ccncc3)[nH]c2cc1Br [XXVIII]	2 (≈ 6.31 µM)
Cn1c(CNc2ccncc2)nc2cc(Cl)ccc21 [XXXVIII]	115 (≈ 422 µM)
CCc1ccc2c(c1)nc(CNc1ccncc1)n2C [XXXVII]	22 (≈ 82.6 µM)

System: CB4 strain 637
Experiment: Anti-coxsackievirus activity in vivo, CB4-induced hypoglycemia in SJL/J mice
Conditions: single, daily intraperitoneal doses as low as 20 mg/kg, initiated 2 hr after infection and continued for 5 days
Method: Anti-coxsackievirus activity, in vivo. Compound No. XII and XXI were examined for its activity against CB4-induced hypoglycemia in SJL/J mice. […] Blood specimens were collected from the tail vein of each mouse before and 2, 3, 4 and 5 days after infection for assaying its plasma glucose levels. The differences in mean relative plasma glucose of uninfected control and compound-treated groups or placebo groups were evaluated by Student's t-test.

Structure (SMILES)	onset of CB4-induced hypoglycemia
CCCn1c(CNc2ccncc2)nc2ccccc21 [XII]	inhibited the onset of CB4-induced hypoglycemia

System: not listed separately
Experiment: Cytotoxicity, morphology of LLC-MK2 cells
Conditions: monkey

Structure (SMILES)	CC50 [µg/mL]
Fc1ccc2nc(CNc3ccncc3)n(-c3ccccc3)c2c1 [XLVIII]	> 100
Cc1cc2nc(CNc3ccncc3)[nH]c2cc1Br [XXVIII]	177 (≈ 557 µM)
COc1cc2nc(CNc3ccncc3)[nH]c2cc1Cl [XXXIII]	> 100
Cn1c(CNc2ccncc2)nc2cc(Cl)ccc21 [XXXVIII]	> 100
CCc1ccc2c(c1)nc(CNc1ccncc1)n2C [XXXVII]	> 100

System: rhinovirus type 14 (HRV14)
Experiment: Inhibition of HRV14 cytopathogenic effect (CPE) in HeLa cells
Type: cell-based
Conditions: CI = CD50 (HeLa)/IC50 (virus CPE)

Structure (SMILES)	CI HRV14 (D)/(B)
CCc1cc2c(cc1Cl)nc(CNc1ccncc1)n2-c1ccccc1 [LXXV, 1-phenyl-2-(4-pyridylaminomethyl)-5-chloro-6-ethylbenzimidazole]	3
CCc1ccc2c(c1)nc(CNc1ccncc1)n2-c1ccccc1 [XLIV]	> 6
CCc1ccc2nc(CNc3ccncc3)n(-c3ccccc3)c2c1 [XLV]	10

Same assay, conditions: Enterovirus, HRV14; * Virus CPE inhibition assay, HeLa cells, 33° C.

Structure (SMILES)	IC50 [µg/mL]
CCc1ccccc1-n1c(CNc2ccncc2)nc2ccccc21 [LXV]	> 100
c1ccc2c(c1)nc(CNc1ccncc1)n2-c1nccs1 [LXXIII]	> 100
CCc1cc2c(cc1Cl)nc(CNc1ccncc1)n2-c1ccccc1 [LXXV, 1-phenyl-2-(4-pyridylaminomethyl)-5-chloro-6-ethylbenzimidazole]	5.6 (≈ 15.4 µM)
Cc1ccc2nc(CNc3ccncc3)n(-c3ccccc3)c2c1 [XLIII]	> 100
CCc1ccc2c(c1)nc(CNc1ccncc1)n2-c1ccccc1 [XLIV]	17.8 (≈ 54.2 µM)
CCc1ccc2nc(CNc3ccncc3)n(-c3ccccc3)c2c1 [XLV]	5.6 (≈ 17.1 µM)
Clc1cc(Cl)c2nc(CNc3ccncc3)[nH]c2c1 [XXVII]	> 17.8
Cc1cc(Cl)c2nc(CNc3ccncc3)[nH]c2c1 [XXVI]	> 56.2
Cc1cc(Cl)cc2[nH]c(CNc3ccncc3)nc12 [XXV]	17.8 (≈ 65.3 µM)

From patent US4818761A, “2-(4-pyridylaminomethyl)-benzimidazole derivatives having antiviral activity” (priority 1986, dated 1989)
